Measurements published in BindingDB's records for doi:10.1021/jm00083a013 (1992).

Key:
[1] = target: Aminopeptidase N (Rattus norvegicus) (UniProt P15684); experiment: Compound was evaluated for its inhibitory potency against purified membrane bound rat brain Aminopeptidase
[2] = target: T1, Aminopeptidase B (Rattus norvegicus, UniProt O09175); experiment: Compound was evaluated for its inhibitory potency against purified membrane bound rat brain Aminopeptidase B (AP-B) using L-lysine-beta napthylamide as substrate
T1 sequence (O09175 whole entry): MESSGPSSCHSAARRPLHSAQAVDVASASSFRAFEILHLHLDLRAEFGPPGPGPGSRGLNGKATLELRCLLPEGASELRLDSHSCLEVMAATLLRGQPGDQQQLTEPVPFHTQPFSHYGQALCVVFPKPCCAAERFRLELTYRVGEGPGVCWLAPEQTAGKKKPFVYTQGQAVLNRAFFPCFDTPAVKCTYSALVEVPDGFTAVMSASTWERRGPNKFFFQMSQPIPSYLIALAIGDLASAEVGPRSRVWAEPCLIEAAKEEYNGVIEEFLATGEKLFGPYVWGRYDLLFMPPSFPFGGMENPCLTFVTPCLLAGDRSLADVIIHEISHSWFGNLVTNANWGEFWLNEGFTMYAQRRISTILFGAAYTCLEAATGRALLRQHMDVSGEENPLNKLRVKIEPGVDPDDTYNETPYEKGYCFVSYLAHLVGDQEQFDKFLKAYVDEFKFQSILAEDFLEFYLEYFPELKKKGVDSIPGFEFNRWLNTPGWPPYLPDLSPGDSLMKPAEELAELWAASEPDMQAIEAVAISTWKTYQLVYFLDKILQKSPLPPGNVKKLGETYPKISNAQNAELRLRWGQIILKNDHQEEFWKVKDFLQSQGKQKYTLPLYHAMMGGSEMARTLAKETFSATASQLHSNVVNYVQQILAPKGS

[3] = target: T2, Aminopeptidase N (Rattus norvegicus, UniProt P15684); experiment: ChEBML_35366
T2 sequence (P15684 whole entry): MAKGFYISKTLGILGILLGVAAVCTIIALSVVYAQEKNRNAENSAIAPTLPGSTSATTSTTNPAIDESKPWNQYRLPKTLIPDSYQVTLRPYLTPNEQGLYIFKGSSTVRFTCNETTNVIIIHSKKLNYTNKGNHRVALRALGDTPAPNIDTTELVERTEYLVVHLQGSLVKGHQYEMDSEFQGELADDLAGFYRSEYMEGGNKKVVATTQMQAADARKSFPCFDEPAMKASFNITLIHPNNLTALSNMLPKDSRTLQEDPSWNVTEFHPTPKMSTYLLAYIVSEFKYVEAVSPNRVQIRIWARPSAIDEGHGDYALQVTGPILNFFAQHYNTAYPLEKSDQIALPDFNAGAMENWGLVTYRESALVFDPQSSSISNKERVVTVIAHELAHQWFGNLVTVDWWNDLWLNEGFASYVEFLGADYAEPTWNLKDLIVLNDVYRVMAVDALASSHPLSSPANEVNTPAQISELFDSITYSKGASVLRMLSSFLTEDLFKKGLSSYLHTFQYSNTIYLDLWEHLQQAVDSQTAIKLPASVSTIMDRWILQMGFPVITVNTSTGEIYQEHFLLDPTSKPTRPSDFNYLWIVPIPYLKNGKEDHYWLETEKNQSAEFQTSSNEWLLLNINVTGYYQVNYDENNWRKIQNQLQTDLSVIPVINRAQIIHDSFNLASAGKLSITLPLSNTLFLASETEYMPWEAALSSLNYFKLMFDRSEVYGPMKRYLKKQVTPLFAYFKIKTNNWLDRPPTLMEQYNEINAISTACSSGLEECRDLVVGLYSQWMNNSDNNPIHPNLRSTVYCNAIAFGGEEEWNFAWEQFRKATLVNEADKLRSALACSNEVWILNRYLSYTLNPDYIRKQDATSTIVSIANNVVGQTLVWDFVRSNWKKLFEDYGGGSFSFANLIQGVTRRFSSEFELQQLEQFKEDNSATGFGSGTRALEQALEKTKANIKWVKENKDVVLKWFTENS
Experimental: Compound was evaluated for its inhibitory potency against purified membrane bound rat brain Aminopeptidase M (AP-M) using [3H]Leu-enkephalin as substrate

[4] = target: T1, Aminopeptidase B; experiment: ChEBML_35343
Experimental: Compound was evaluated for its inhibitory potency against purified membrane bound rat brain Aminopeptidase B using L-lysine-beta napthylamide as substrate

Q: `COC(=O)[C@H](CC(C)C)NC(=O)[C@@H](O)[C@H](N)CCCCN` was tested. Which IC50 [1] did it give?
A: Its IC50 is 2.01 µM.

Q: `COC(=O)[C@H](CC(C)C)NC(=O)[C@H](O)[C@@H](N)CCCCN` was tested. Which IC50 [2] did it give?
A: Its IC50 is 500 µM.

Q: And the IC50 [3]?
A: The IC50 was greater than 1000 µM.

Q: How did the IC50 [4] turn out when `COC(=O)[C@H](Cc1c[nH]c2ccccc12)NC(=O)[C@H](O)[C@@H](N)CCCCN` was run?
A: Its IC50 is 500 µM.
